Entries after “also recorded” stand apart in the source; their conditions may differ. Counter-ions that a name gives are not always drawn.
How the values were obtained:
[1] = Pharmacokinetics of the subject combination in moderate renal impairment
Text: (§1) Data are GMRs and 90% CIs. References used are the matched healthy subjects for renal and hepatic impairment studies, and extensive or ultra-extensive CYP2D6 metabolizers respectively.

[2] = Effect of food on pharmacokinetics of the subject combination; format: in vivo, human; settings: subject combination administered with food
[3] = Pharmacokinetics of the subject combination in CYP2D6 poor metabolizers; settings: steady state, hydrobromide monohydrate
Text: Approximately 7% to 10% of Caucasians and 3% to 8% of African Americans lack the capacity to metabolize CYP2D6 substrates and are classified as poor metabolizers.
as §1

[4] = Steady state pharmacokinetics after administration of the subject combination; settings: for Cmax relative to the peak level of bupropion: after administration of the subject combination
[5] = Co-administration of the subject combination with paroxetine / strong CYP2D6 inhibitor; settings: subject combination plus strong CYP2D6 inhibitor
Text: In some embodiments, the patients are monitored for adverse reactions potentially attributable to dextromethorphan, such as somnolence and dizziness.

[6] = clinical trials; cited from earlier work
[7] = clinical trials; cited from earlier work; remark: listed apart in the source

## CC(NC(C)(C)C)C(=O)c1cccc(Cl)c1.Cl (racemic) [bupropion, (±)-1-(3-chlorophenyl)-2-[(1,1-dimethylethyl)amino]-1-propanone hydrochloride]
[1]; human, in vivo
  increase in exposure vs matched controls with normal renal function: approximately 2 fold
  reduction in clearance vs matched controls with normal renal function: 50%

## COc1ccc2c(c1)[C@]13CCCC[C@@H]1[C@H](C2)N(C)CC3 [dextromethorphan, morphinan, 3-methoxy-17-methyl-, (9α, 13α, 14α), hydrobromide monohydrate]
[1]; moderate renal impairment (GFR 30-60 mL/min)
  reduction in clearance vs matched controls with normal renal function: 50%
[1]; moderate renal impairment (GFR 30-60 mL/min), 7 subjects vs 6 controls
  increase in exposure vs matched controls with normal renal function: approximately 2 fold
[2]
  change of Cmax with food: unchanged
[3]
  plasma concentrations in poor metabolizers compared with non-poor metabolizers: increases plasma concentrations; also recorded: generally higher
[4]; 8 days of the subject combination, extensive metabolizers
  increase in mean elimination half-life compared to dextromethorphan given without bupropion: approximately 3 fold
[4]; co-administered with bupropion, dextromethorphan 30 to 60 mg, bupropion 75 to 150 mg
  pharmacokinetics at steady state (dose proportionality): nonlinear pharmacokinetics
[5]
  plasma concentrations on concomitant use with a strong CYP2D6 inhibitor: increases plasma concentrations

## CC(NC(C)(C)C)C(O)c1cccc(Cl)c1 (stereo not drawn) [erythrohydroxybupropion]
[4]
  Cmax relative to the peak level of bupropion: approximately equal to

## CN[C@]1(c2ccccc2Cl)CCCCC1=O [esketamine, Esketamine]
[6]
  patients who developed sedation based on MOAA/S: 48% to 61
  patients who experienced loss of consciousness (MOAA/S score of 0): 0.3% to 0.4
[7]
  patients who developed dissociative or perceptual changes based on CADSS: 61% to 84

## C[C@H]1NC(C)(C)CO[C@]1(O)c1cccc(Cl)c1 [hydroxybupropion]
[4]
  Cmax relative to the peak level of bupropion: approximately 14 times

## C[C@H](NC(C)(C)C)[C@@H](O)c1cccc(Cl)c1 [threohydroxybupropion]
[4]
  Cmax relative to the peak level of bupropion: about 5 times
